Assay results: patent publication US8492537B2, “Nucleosides for suppressing or reducing the development of resistance in cytostatic therapy” (RESprotect GmbH, priority 2006, dated 2013)

Row | SMILES | melting point
1 | O=c1[nH]c(=O)n([C@H]2C[C@H](O)[C@@H](CF)O2)cc1/C=C/Br [2.1.1, 2′,5′-dideoxy-5′-fluoro-5-(E)-bromovinyluridine] | 208 °C
2 | CO[C@H]1C[C@H](n2cc(/C=C/Br)c(=O)[nH]c2=O)O[C@@H]1CF [2.1.4, 3′-O-methyl-5′-fluoro-2′,5′-dideoxy-5-(E)-bromovinyluridine] | 177 °C
3 | O=c1[nH]c(=O)n([C@H]2C[C@H](Br)[C@@H](CBr)O2)cc1/C=C/Br [3.6, 3′,5′-dibromo-2′,3′,5′-trideoxy-5-(E)-bromovinyluridine] | 153 °C
4 | O=c1[nH]c(=O)n([C@@H]2O[C@H](CBr)[C@@H](O)[C@H]2O)cc1/C=C/Br [2.3, 5′-bromo-5′-deoxy-5-(E)-bromovinyluridine] | 201 °C
5 | CC(C)[C@H](NC(=O)OC(C)(C)C)C(=O)OC[C@H]1O[C@@H](n2cc(/C=C/Br)c(=O)[nH]c2=O)C[C@@H]1Cl [1.2.2.5, 5′-O—(N-t-butyloxycarbonyl-L-valinoyl)-3′-chloro-2′,3′-dideoxy-5-(E)-bromovinyluridine] | 75 to 76 °C
6 | CO[C@H]1C[C@H](n2cc(/C=C/Br)c(=O)[nH]c2=O)O[C@@H]1CCl [2.1.2, 3′-O-methyl-5′-chloro-2′,5′-dideoxy-5-(E)-bromovinyluridine] | 145 °C
7 | CC(C)[C@H](NC(=O)OC(C)(C)C)C(=O)N[C@H](C(=O)O[C@H]1C[C@H](n2cc(/C=C/Br)c(=O)[nH]c2=O)O[C@@H]1CN=[N+]=[N-])C(C)C [2.2.2.9, 5′-azido-3′-O—(N-t-butyloxycarbonyl-L-valyl-L-valinoyl)-2′,5′-dideoxy-5-(E)-bromovinyluridine] | 133 to 135 °C
8 | CCCCOC(=O)N[C@H](C(=O)O[C@H]1C[C@H](n2cc(/C=C/Br)c(=O)[nH]c2=O)O[C@@H]1CCl)C(C)C [2.2.2.5, 3′-O—(N-4-butyloxycarbonyl-L-valinoyl)-5′-chloro-2′,5′-dideoxy-5-(E)-bromovinyluridine] | 87 to 88 °C
9 | CC(=O)O[C@H]1C[C@H](n2cc(/C=C/Br)c(=O)[nH]c2=O)O[C@@H]1C(O)F (stereo partly shown) [2.2.1, 3′-O-acetyl-5′-fluoro-2′-deoxy-5-(E)-bromovinyluridine] | 81 °C
10 | [N-]=[N+]=NC[C@H]1O[C@@H](n2cc(/C=C/Br)c(=O)[nH]c2=O)C[C@@H]1Cl [3.5.3, 5′-azido-3′-chloro-2′,3′,5′-trideoxy-5-(E)-bromovinyluridine] | 58 to 60 °C
11 | O=c1[nH]c(=O)n([C@@H]2O[C@H](CO)[C@@H](O)[C@H]2F)cc1/C=C/Br [5.1, 2′-fluoro-2′-deoxy-5-(E)-bromovinyluridine] | 182 °C
12 | CC(C)[C@H](NC(=O)OC(C)(C)C)C(=O)N[C@H](C(=O)O[C@H]1C[C@H](n2cc(/C=C/Br)c(=O)[nH]c2=O)O[C@@H]1CCl)C(C)C [2.2.2.7, 3′-O—(N-t-butyloxycarbonyl-L-valyl-L-valinoyl)-5′-chloro-2′,5′-dideoxy-5-(E)-bromovinyluridine] | 114 to 116 °C
13 | O=c1[nH]c(=O)n([C@H]2C[C@H](F)[C@@H](CF)O2)cc1/C=C/Br [3.1, 3′,5′-difluoro-2′,3′,5′-trideoxy-5-(E)-bromovinyluridine] | 177 to 180 °C
14 | CC(=O)N[C@H]1C[C@H](n2cc(/C=C/Br)c(=O)[nH]c2=O)O[C@@H]1CBr [1.4.2, 3′-acetamido-5′-bromo-2′,3′,5′-trideoxy-5-(E)-bromovinyluridine] | 178 to 180 °C
15 | CC(C)[C@H](NC(=O)OC(C)(C)C)C(=O)N[C@H](C(=O)OC[C@H]1O[C@@H](n2cc(/C=C/Br)c(=O)[nH]c2=O)C[C@@H]1N=[N+]=[N-])C(C)C [1.2.2.9, 3′-azido-5′-O—(N-t-butyloxycarbonyl-L-valyl-L-valinoyl)-2′,3′-dideoxy-5-(E)-bromovinyluridine] | 95 to 97 °C
16 | CO[C@H]1C[C@H](n2cc(/C=C/Br)c(=O)n(C)c2=O)O[C@@H]1CF [2.1.3, 3′-O-methyl-5′-fluoro-2′,5′-dideoxy-3-methyl-5-(E)-bromovinyluridine] | 95 °C
17 | [N-]=[N+]=N[C@H]1C[C@H](n2cc(/C=C/Br)c(=O)[nH]c2=O)O[C@@H]1CCl [3.5.4, 3′-azido-5′-chloro-2′,3′,5′-trideoxy-5-(E)-bromovinyluridine] | 124 to 125 °C
18 | O=c1[nH]c(=O)n([C@H]2C=C[C@@H](CBr)O2)cc1/C=C/Br [4.2, 2′,3′-didehydro-2′,3′,5′-trideoxy-5′-bromo-5-(E)-bromovinyluridine] | > 150 °C
19 | O=c1[nH]c(=O)n([C@H]2C[C@H](Cl)[C@@H](CCl)O2)cc1/C=C/Br [3.3, 3′,5′-dichloro-2′,3′,5′-trideoxy-5-(E)-bromovinyluridine] | 184 °C
20 | O=c1[nH]c(=O)n([C@@H]2O[C@H](CBr)[C@@H](O)[C@H]2F)cc1/C=C/Br [5.2, 2′-fluoro-5′-bromo-2′,5′-dideoxy-5-(E)-bromovinyluridine] | 223 °C
21 | C[C@H]1O[C@@H](n2cc(/C=C/Br)c(=O)[nH]c2=O)C[C@@H]1O [8.1, 2′,5′-dideoxy-5-(E)-bromovinyluridine] | 174 °C (dec.)
22 | O=c1[nH]c(=O)n([C@H]2C[C@H](Cl)[C@@H](CBr)O2)cc1/C=C/Br [3.5, 3′-chloro-5′-bromo-2′,3′,5′-trideoxy-5-(E)-bromovinyluridine] | 149 °C
23 | O=c1[nH]c(=O)n([C@H]2C[C@H](F)[C@@H](CCl)O2)cc1/C=C/Br [3.2, 3′-fluoro-5′-chloro-2′,3′,5′-trideoxy-5-(E)-bromovinyluridine] | 203 °C
24 | CC(=O)O[C@H]1C[C@H](n2cc(/C=C/Br)c(=O)[nH]c2=O)O[C@@H]1CC#N [10.3, 3′-O-acetyl-5′-cyano-2′,5′-dideoxy-5-(E)-bromovinyluridine] | 96 °C
25 | C[C@H]1O[C@@H](n2cc(/C=C/Br)c(=O)[nH]c2=O)C[C@@H]1Cl [8.2, 3′-chloro-2′,3′,5′-trideoxy-5-(E)-bromovinyluridine] | 134 °C
26 | CC(C)[C@H](NC(=O)OC(C)(C)C)C(=O)N[C@H](C(=O)OC[C@H]1O[C@@H](n2cc(/C=C/Br)c(=O)[nH]c2=O)C[C@@H]1Cl)C(C)C [1.2.2.7, 5′-O—(N-t-butyloxycarbonyl-L-valyl-L-valinoyl)-3′-chloro-2′,3′-dideoxy-5-(E)-bromovinyluridine] | 102 to 103 °C
27 | N#CC[C@H]1O[C@@H](n2cc(/C=C/Br)c(=O)[nH]c2=O)C[C@@H]1O [compound 10, 5′-cyano-2′,5′-dideoxy-5-(E)-bromovinyluridine] | 177 °C (dec.)
28 | O=c1[nH]c(=O)n([C@H]2C=C[C@@H](CO)O2)cc1/C=C/Br [4.1, 2′,3′-didehydro-2′,3′-dideoxy-5-(E)-bromovinyluridine] | > 250 °C (dec.)
